Target: T1, human D3 receptor (Homo sapiens, UniProt P35462)
T1 construct: host or cells: Sf9 cells; final budded baculovirus production in Mimic Sf9 insect cells
Experiment: Fluorescence anisotropy competition binding with CELT-419 and D3 receptor budded baculoviruses
Settings: FA competition with 0.5 nM CELT-419
Procedure: The competitive ligand dilutions were done on the measurement plate. Also, a point with no competitive ligand was included and for blank correction, a point with only BBV was included. Measurements were carried out with 5 min intervals for 5 h at 27 °C. In all cases, BBV was added as the last component to initiate the ligand binding process.
To fit the Log(IC50) change in time from the competition binding experiments, a single-phase exponential decay equation with a constant corresponding to the equilibrium state was used.

T1 sequence (P35462 whole entry): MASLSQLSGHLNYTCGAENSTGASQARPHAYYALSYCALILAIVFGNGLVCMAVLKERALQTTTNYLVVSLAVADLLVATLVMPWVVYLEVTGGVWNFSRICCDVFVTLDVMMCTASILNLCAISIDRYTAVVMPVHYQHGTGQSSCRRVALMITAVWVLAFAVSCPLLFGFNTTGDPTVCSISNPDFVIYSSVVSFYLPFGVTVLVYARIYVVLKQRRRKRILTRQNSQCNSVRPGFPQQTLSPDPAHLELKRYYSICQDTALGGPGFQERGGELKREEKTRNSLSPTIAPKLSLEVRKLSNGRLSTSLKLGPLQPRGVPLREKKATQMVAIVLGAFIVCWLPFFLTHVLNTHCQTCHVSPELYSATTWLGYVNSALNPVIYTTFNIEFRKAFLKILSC

Log(IC50) values change in time: increased in time
SMILES: CN1CCc2cccc3c2[C@H]1Cc1ccc(O)c(O)c1-3 [Apomorphine]

— publication PMC10062709, “Fluorescence based HTS-compatible ligand binding assays for dopamine D3 receptors in baculovirus preparations and live cells” (Frontiers in Molecular Biosciences, 2023)
